Assay results from patent US11543404B2, “Nerve cell device and method for evaluating neural activity” (Stem Cell & Device Laboratory, Inc., priority 2017, dated 2023).

How the values were obtained:
[1] = test system: iPS cell-derived neurons XCL-1 NEURONS; test: MEA measurement of drug response (spikes, bursts, synchronous bursts) of XCL-1 NEURONS on oriented PLGA fiber sheet; type: cell-based, human; settings: 4-AP final concentration 100 μM
Method: iPS cell-derived neurons (253G1 hiPS cell-derived neuron or XCL-1 NEURONS (XCell Science, catalog number XN-001-1V)) were seeded on the oriented PLGA fiber sheet as a cell scaffold at 13×10^5 cells/cm^2. 253G1 hiPS cell-derived neurons were cultured in N2B27 medium with or without 20% ACM, and the XCL-1 NEURONS are cultured in BrainPhys (registered trademark) Neuronal Medium (05792, STEMCELL TECHNOLOGIES) with or without 20% ACM in an incubator at 5% CO2 and 37° C. for 4 or 6 weeks. The fiber sheet was placed on an MEA probe (MED64 system, Alpha MED Scientific Inc.), and made the cells contact with the electrodes of MEA probe to measure neural activity (spikes). As a control, neurons were similarly seeded directly on a probe (electrodes) based on a conventional method, and cultured in an incubator at 5% CO2 and 37° C. for 4 or 6 weeks. The obtained results were compared with those given by a conventional method (direct seeding to a probe). A larger number of spikes were detected in 253G1 hiPS cell-derived neurons on the fiber sheet at 4-week culture (FIG. 7a). […] In the measurement system, 4-aminopyridine (4-AP), known to have a function of inhibiting various potassium channels in neurons and maintaining neuronal action potential, was added to the neurons cultured for 4 weeks at a final concentration of 100 μM, and then the spikes were measured. As a result, the number of spikes was increased both in the control group and in the fiber sheet group by the addition of 4-aminopyridine, and appropriate drug response was also confirmed (FIG. 7a). […] The cells were cultured in BrainPhys (registered trademark) Neuronal Medium (05792, STEMCELL TECHNOLOGIES) containing 20% ACM in an incubator at 5% CO2 and 37° C. for 2, 4, and 6 weeks. The obtained cell sheet (nerve cell device) was placed on an MEA probe (MED64 system, Alpha MED Scientific Inc.) and made the cells contact with the electrodes of MEA probe to measure neural activity (spikes and bursts). In the measurement system, 4-aminopyridine (4-AP), known to maintain a neural action potential was added at a final concentration of 100 μM to examine the drug response of neurons. MED 64 Burstscope (Alpha MED Scientific Inc.) was used for analyzing neural activity. About the cell sheet obtained by culturing for 4 weeks, the result of analyzing the number of spikes is shown in FIG. 8a, and the result of analyzing the number of synchronous bursts is shown in FIG. 8b. […] Furthermore, the result of analyzing neural activity by raster plots for a cell sheet obtained by culturing for 6 weeks is shown in FIG. 8c.

[2] = test system: 253G1 hiPS cell-derived neurons; test: MEA measurement of drug response (number of spikes) of 253G1 hiPS cell-derived neurons; type: cell-based, human; settings: 4-AP final concentration 100 μM
Method: iPS cell-derived neurons (253G1 hiPS cell-derived neuron or XCL-1 NEURONS (XCell Science, catalog number XN-001-1V)) were seeded on the oriented PLGA fiber sheet as a cell scaffold at 13×10^5 cells/cm^2. 253G1 hiPS cell-derived neurons were cultured in N2B27 medium with or without 20% ACM, and the XCL-1 NEURONS are cultured in BrainPhys (registered trademark) Neuronal Medium (05792, STEMCELL TECHNOLOGIES) with or without 20% ACM in an incubator at 5% CO2 and 37° C. for 4 or 6 weeks. The fiber sheet was placed on an MEA probe (MED64 system, Alpha MED Scientific Inc.), and made the cells contact with the electrodes of MEA probe to measure neural activity (spikes). As a control, neurons were similarly seeded directly on a probe (electrodes) based on a conventional method, and cultured in an incubator at 5% CO2 and 37° C. for 4 or 6 weeks. The obtained results were compared with those given by a conventional method (direct seeding to a probe). A larger number of spikes were detected in 253G1 hiPS cell-derived neurons on the fiber sheet at 4-week culture (FIG. 7a). […] In the measurement system, 4-aminopyridine (4-AP), known to have a function of inhibiting various potassium channels in neurons and maintaining neuronal action potential, was added to the neurons cultured for 4 weeks at a final concentration of 100 μM, and then the spikes were measured. As a result, the number of spikes was increased both in the control group and in the fiber sheet group by the addition of 4-aminopyridine, and appropriate drug response was also confirmed (FIG. 7a).

[3] = seeded at 24×10^5 cells/cm^2 on oriented PLGA fiber sheet, 20% ACM, cultured 4 weeks

Nc1ccncc1 [4-aminopyridine]
increase in the number of spikes [1, 3]: 499% | increase in the number of synchronous bursts [1, 3]: 375% | number of spikes and synchronous bursts (raster plots) ([1]; seeded at 24×10^5 cells/cm^2 on oriented PLGA fiber sheet, 20% ACM, cultured 6 weeks): remarkable increase | increase in the number of bursts ([1]; seeded on fiber sheet at 12×10^5 cells/cm^2, cultured 6 weeks in medium with ACM): 2.6 fold | increase in the number of spikes ([2]; control group cultured directly on the MEA probe, 4 weeks): 156% | increase in the number of spikes ([2]; fiber sheet group cultured in medium with 20% ACM, 4 weeks): 194% | increase in the number of spikes ([2]; neurons on oriented PLGA fiber sheet (fiber sheet group), cultured 4 weeks): 167%
